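Method: 48-hour compound exposure of cells in 96-well plates, five concentrations, linear interpolation of endpoints. The concentration for 50% growth inhibition is given as GI50.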 Calls of active or inactive are those of the source. No stated cut-off is given here; in the data, active = GI50 up to about 1.1 µM and inactive = higher.
Columns and labels:
Assay in all cases: NCI-60 cell line screen, 48 h
DMS-114 = tested on: DMS-114
HOP-18 = tested on: HOP-18
LXFL 529 = tested on: LXFL 529
DMS-273 = tested on: DMS-273
SNB-78 = tested on: SNB-78
XF498 = tested on: XF498
KM-20L2 = tested on: KM-20L2
M19-MEL = tested on: M19-MEL
RXF 631 = tested on: RXF 631

| SMILES | GI50 (DMS-114) | GI50 (HOP-18) | GI50 (LXFL 529) | GI50 (DMS-273) | GI50 (SNB-78) | GI50 (XF498) | GI50 (KM-20L2) | GI50 (M19-MEL) | GI50 (RXF 631) |
| --- | --- | --- | --- | --- | --- | --- | --- | --- | --- |
| CC(C)(C)C1CCC(O)(c2ccccc2)CC1 (stereo not drawn) | 45.6 µM (inactive) | > 100 µM (inactive) | 78.2 µM (inactive) | > 100 µM (inactive) | > 100 µM (inactive) | 1.97 µM (inactive) | > 100 µM (inactive) | > 100 µM (inactive) |  |
| CCOC(=O)C(=O)Nc1ccc(C)cc1C | > 100 µM (inactive) | > 100 µM (inactive) | > 100 µM (inactive) |  | > 100 µM (inactive) |  |  | > 100 µM (inactive) |  |
| CCNCCCCNCCCCNCCCCNCCCCNCC | > 100 µM (inactive) | > 100 µM (inactive) | > 94.8 µM (inactive) | > 49.7 µM (inactive) | > 100 µM (inactive) | > 32.8 µM (inactive) | > 100 µM (inactive) | > 100 µM (inactive) |  |
| c1ccc2c(c1)SC(=C1Sc3ccccc3S1)S2 | 69.8 µM (inactive) | > 100 µM (inactive) | > 100 µM (inactive) | > 100 µM (inactive) | > 100 µM (inactive) | > 100 µM (inactive) | > 100 µM (inactive) | > 100 µM (inactive) | > 100 µM (inactive) |
| N#CCN1C(=O)c2cccc3cc([N+](=O)[O-])cc(c23)C1=O | 38.7 µM (inactive) | > 100 µM (inactive) | 40.1 µM (inactive) | 30.7 µM (inactive) | 71.6 µM (inactive) | 25.8 µM (inactive) | 45.2 µM (inactive) | 19.8 µM (inactive) |  |
| S=c1[nH]nc(Cc2ccccc2)c(=S)[nH]1 |  | 25.4 µM (inactive) | > 100 µM (inactive) | > 100 µM (inactive) | > 100 µM (inactive) | > 100 µM (inactive) |  | > 100 µM (inactive) | > 100 µM (inactive) |
| Cc1cc(C)c(-c2noc(-c3ccc(Cl)cc3)c2C2=NCCN2)c(C)c1 |  | 1.17 µM (inactive) | 19.9 µM (inactive) |  | 20.1 µM (inactive) | 21.4 µM (inactive) | 22.2 µM (inactive) | 35.8 µM (inactive) | 43.3 µM (inactive) |
| COc1ccc(NC(=O)C/C(C)=N\N=C(N)N)c([N+](=O)[O-])c1 | > 100 µM (inactive) | > 100 µM (inactive) | > 100 µM (inactive) | > 100 µM (inactive) | > 100 µM (inactive) | > 100 µM (inactive) | > 100 µM (inactive) | > 100 µM (inactive) |  |
| N#CC1(Cc2ccc(N)cc2)c2ccccc2C=CN1C(=O)c1ccccc1 (stereo not drawn) | 38.8 µM (inactive) | 25.2 µM (inactive) | 35.8 µM (inactive) | 47.1 µM (inactive) | 47.9 µM (inactive) | 28.9 µM (inactive) | 34.1 µM (inactive) | 40.1 µM (inactive) |  |
| CN(C)/C=N/c1nc2c(ncn2C2OC(CO)C(O)C2O)c(=O)[nH]1 (stereo not drawn) | > 100 µM (inactive) | > 100 µM (inactive) | > 100 µM (inactive) | > 100 µM (inactive) | > 100 µM (inactive) | > 100 µM (inactive) | > 100 µM (inactive) | > 100 µM (inactive) | > 100 µM (inactive) |
| C#CCNC(=O)NCCCCC(NC(C)=O)C(=O)NCc1ccccc1 (stereo not drawn) | > 100 µM (inactive) | > 100 µM (inactive) | > 100 µM (inactive) |  | > 100 µM (inactive) | 0.101 µM (active) | > 100 µM (inactive) | > 100 µM (inactive) | > 100 µM (inactive) |
| CN1CCC(SC2Cc3cc(Cl)ccc3Sc3ccccc32)CC1 (stereo not drawn) |  | 13.5 µM (inactive) | 13.1 µM (inactive) | 12.5 µM (inactive) |  | 16 µM (inactive) | 5.27 µM (inactive) | 12.7 µM (inactive) | 13.3 µM (inactive) |
| N#Cc1cc([N+](=O)[O-])ccc1NC(=O)C(=O)C(C(=O)c1ccc2ccccc2c1)C1OCc2ccccc21 (stereo not drawn) | 8.07 µM (inactive) |  | 4.41 µM (inactive) |  | 3.93 µM (inactive) |  | 20.7 µM (inactive) | 11.8 µM (inactive) | 11.3 µM (inactive) |
| C/C(=N\NS(=O)(=O)c1ccc(C)cc1)c1c(O)cc(C)oc1=O |  | > 100 µM (inactive) | > 100 µM (inactive) |  | > 100 µM (inactive) |  | > 100 µM (inactive) | > 100 µM (inactive) |  |
| CCCCCCN(CCCCCC)C(=O)Cc1c2n(c3ccccc13)Cc1ccccc1-2 | 28.6 µM (inactive) | > 100 µM (inactive) | 37.4 µM (inactive) | 36.9 µM (inactive) | 71.8 µM (inactive) |  | > 100 µM (inactive) | 60.3 µM (inactive) |  |
| Cc1nc(N)c(-c2ccccc2)s1 | > 76 µM (inactive) | > 100 µM (inactive) | > 100 µM (inactive) | 39.9 µM (inactive) | 68.4 µM (inactive) | 34.6 µM (inactive) | > 70.8 µM (inactive) | > 100 µM (inactive) | > 100 µM (inactive) |
| Cc1ccc2c(c1)-c1c3c(nn1-c1ccccc1)-c1ccccc1SC3O2 (stereo not drawn) | > 100 µM (inactive) | > 100 µM (inactive) | > 100 µM (inactive) | > 100 µM (inactive) | > 100 µM (inactive) | > 100 µM (inactive) | > 100 µM (inactive) |  | 2.65 µM (inactive) |
| CCCN(CCC)C(=O)C(=O)c1c(N)[nH]n(-c2ccccc2)c1=O | > 100 µM (inactive) | > 100 µM (inactive) | 66.2 µM (inactive) | > 100 µM (inactive) | > 100 µM (inactive) | > 100 µM (inactive) | > 100 µM (inactive) | > 100 µM (inactive) | > 100 µM (inactive) |
| CCN(CC)CC(O)CNc1ccc(NCC(O)CCl)c2c1C(=O)c1ccccc1C2=O (stereo not drawn) |  | > 10 µM (inactive) | 1.85 µM (inactive) | 3.33 µM (inactive) | 6.7 µM (inactive) | 13.4 µM (inactive) | 4.68 µM (inactive) | 6.82 µM (inactive) |  |
| CC1OC(OP(=O)(OCc2ccccc2)OCc2ccccc2)C(OC(=O)c2ccccc2)C(OC(=O)c2ccccc2)C1I (stereo not drawn) |  |  | 41.8 µM (inactive) | 53 µM (inactive) |  | > 100 µM (inactive) | 51.2 µM (inactive) | 61.5 µM (inactive) |  |
| O=C(/C=C/c1ccccc1F)c1ccc([N+](=O)[O-])cc1 | 17.1 µM (inactive) | 57.5 µM (inactive) | 16.6 µM (inactive) | 36.3 µM (inactive) | 37.2 µM (inactive) | 19.6 µM (inactive) | 30.8 µM (inactive) | 22.2 µM (inactive) |  |
| CC(C)c1cc2c(O)c(c1)Cc1cc(C(C)C)cc(c1O)Cc1cc(C(C)C)cc(c1O)Cc1cc(C(C)C)cc(c1O)Cc1cc(C(C)C)cc(c1O)Cc1cc(C(C)C)cc(c1O)C2 | > 100 µM (inactive) |  | > 100 µM (inactive) | > 100 µM (inactive) | > 100 µM (inactive) | > 100 µM (inactive) | > 100 µM (inactive) | > 100 µM (inactive) |  |
| CCC/C(=N\NC(=S)N1CC2CCC(CC2)C1)c1ccccn1 |  | 0.149 µM (active) | 0.0113 µM (active) | 0.00839 µM (active) | 0.344 µM (active) | 0.00543 µM (active) | 0.0145 µM (active) |  |  |
| COc1ccc(S(=O)(=O)N[C@H](C(=O)O)c2ccccc2)cc1 | > 100 µM (inactive) | > 100 µM (inactive) | > 100 µM (inactive) | > 100 µM (inactive) | > 100 µM (inactive) | > 100 µM (inactive) | > 100 µM (inactive) | > 100 µM (inactive) |  |
| ClCCN(CC#CCCCC#CCN(CCCl)CCCl)CCCl | 3.01 µM (inactive) | 17.8 µM (inactive) | 12.4 µM (inactive) | 4 µM (inactive) | 17.2 µM (inactive) |  | 13.8 µM (inactive) | 12.1 µM (inactive) | 10.8 µM (inactive) |
| Cc1ccc(S(=O)(=O)NCCCN(CCCNS(=O)(=O)c2ccc(C)cc2)S(=O)(=O)c2ccc(C)cc2)cc1 | > 100 µM (inactive) |  | > 100 µM (inactive) | > 100 µM (inactive) | > 100 µM (inactive) |  | > 100 µM (inactive) | > 100 µM (inactive) |  |
| COC(=O)C(=O)CC(=O)CCn1[nH]c(=O)c(Cl)c(Cl)c1=O | > 100 µM (inactive) |  | > 100 µM (inactive) | > 100 µM (inactive) | > 100 µM (inactive) | > 100 µM (inactive) | > 100 µM (inactive) | > 100 µM (inactive) |  |

Source: ChEMBL document CHEMBL1201862, “PubChem BioAssay data set” (2004)
